Assay results as given in PMC12187842, “A novel molecule targeting neutrophil-mediated B-1a cell trogocytosis attenuates sepsis-induced acute lung injury” (Frontiers in Immunology, 2025).

Tests used:
Format in all cases: in vivo, mouse
[1] = system: CLP-induced sepsis in C57BL/6 mice; assay: Lung wet-to-dry weight ratio in CLP mice; conditions: C11 10 mg/kg i.p. once after CLP (Figure 5 legend: 10 μg/kg); 20 h; n = 5-7/group; vs. CLP vehicle
Text: (§1) Mice were anesthetized with 2% isoflurane in oxygen, and sepsis was induced via cecal ligation and puncture (CLP) ([26]). A 1-cm midline abdominal incision was made to expose the cecum, which was ligated 1-cm proximal to its end using a 4-0 silk suture. The cecum then was perforated with a single through-and-through puncture using a 22-gauge needle, positioned midway between the ligation and the tip of the cecum. A small amount of fecal material was gently extruded from the perforation sites to confirm the patency of the punctures, and the cecum was subsequently returned to the peritoneal cavity. Following abdominal closure, resuscitation was provided via subcutaneous (s.c.) injection of 500 µL normal saline. Postoperative analgesia was administered with a single dose of 0.1 mg/kg buprenorphine. To evaluate the effects of the therapeutic peptide (named Compound 11 or C11) (synthesized by GenScript USA Inc., Piscataway, NJ) on sepsis, C57BL/6 mice were assigned to three experimental groups: the Sham group, the CLP group treated with vehicle, and the CLP group treated with C11 (10 mg/kg). C11 was dissolved in DMSO (10 mg/mL) and diluted with saline to a total volume of 500 µL. […]
Lung wet and dry weights were measured as previously described ([30]). […] The wet-to-dry weight ratio was calculated as an indicator of pulmonary edema.

[2] = system: CLP-induced sepsis in C57BL/6 mice; assay: Lung myeloperoxidase activity in CLP mice; conditions: C11 10 mg/kg i.p. once after CLP (Figure 5 legend: 10 μg/kg); 20 h; n = 5-7/group; vs. CLP vehicle
Text: as §1, with “buprenorphine.” for “buprenorphine. To evaluate the effects of the therapeutic peptide (named Compound 11 or C11) (synthesized by GenScript USA Inc., Piscataway, NJ) on sepsis, C57BL/6 mice were assigned to three experimental groups: the Sham group, the CLP group treated with vehicle, and the CLP group treated with C11 (10 mg/kg). C11 was dissolved in DMSO (10 mg/mL) and diluted with saline to a total volume of 500 µL.”
Approximately 50 to 100 mg of septic lung tissue, previously snap-frozen in liquid nitrogen and pulverized into a fine powder, was homogenized in potassium phosphate (KPO4) buffer containing 0.5% hexadecyltrimethylammonium bromide (HTAB; MilliporeSigma, Burlington, MA). […] The enzymatic reaction was monitored by measuring light absorbance at 460 nm over a five-minute period. MPO activity was expressed as units per gram of tissue, where one unit was defined as the change in absorbance per minute.

[3] = system: CLP-induced sepsis in C57BL/6 mice; assay: Plasma pro-inflammatory cytokines in CLP mice by ELISA; conditions: C11 10 mg/kg i.p. once after CLP (Figure 5 legend: 10 μg/kg); 20 h; n = 5-7/group; p < 0.05 vs. CLP vehicle
Text: as §1, with “buprenorphine.” for “buprenorphine. To evaluate the effects of the therapeutic peptide (named Compound 11 or C11) (synthesized by GenScript USA Inc., Piscataway, NJ) on sepsis, C57BL/6 mice were assigned to three experimental groups: the Sham group, the CLP group treated with vehicle, and the CLP group treated with C11 (10 mg/kg). C11 was dissolved in DMSO (10 mg/mL) and diluted with saline to a total volume of 500 µL.”
(§2) Blood was collected by heart puncture. Plasma levels of organ injury markers (ALT: alanine transaminase, AST: aspartate transferase, and LDH: lactate dehydrogenase) were assessed by using colorimetric enzymatic assays (MedTest Dx, Canton, MI) according to the manufacturer’s protocol. Plasma levels of pro-inflammatory cytokines (TNFα: tumor necrosis factor α, and IL-6: interleukin-6) were measured by using mouse-specific ELISA kits (BD Biosciences).

[4] = system: CLP-induced sepsis in C57BL/6 mice; assay: Plasma organ injury markers in CLP mice by colorimetric enzymatic assays; conditions: C11 10 mg/kg i.p. once after CLP (Figure 5 legend: 10 μg/kg); 20 h; n = 5-7/group; vs. CLP vehicle
Text: Mice were anesthetized with 2% isoflurane in oxygen, and sepsis was induced via cecal ligation and puncture (CLP) ([26]). A 1-cm midline abdominal incision was made to expose the cecum, which was ligated 1-cm proximal to its end using a 4-0 silk suture. The cecum then was perforated with a single through-and-through puncture using a 22-gauge needle, positioned midway between the ligation and the tip of the cecum. A small amount of fecal material was gently extruded from the perforation sites to confirm the patency of the punctures, and the cecum was subsequently returned to the peritoneal cavity. Following abdominal closure, resuscitation was provided via subcutaneous (s.c.) injection of 500 µL normal saline. Postoperative analgesia was administered with a single dose of 0.1 mg/kg buprenorphine. To evaluate the effects of the therapeutic peptide (named Compound 11 or C11) (synthesized by GenScript USA Inc., Piscataway, NJ) on sepsis, C57BL/6 mice were assigned to three experimental groups: the Sham group, the CLP group treated with vehicle, and the CLP group treated with C11 (10 mg/kg). C11 was dissolved in DMSO (10 mg/mL) and diluted with saline to a total volume of 500 µL. The peptide was administered once, immediately after surgery, via intraperitoneal (i.p.) injection. Mice in the vehicle group received an equivalent volume of DMSO and normal saline via i.p. injection. After 20 h, lungs were harvested, and blood was collected via cardiac puncture. For the survival study, animals received a single subcutaneous (s.c.) injection of 0.5 mg/kg imipenem at the end of the CLP.
as §2

[5] = system: neutrophil-mediated B-1a cell trogocytosis; assay: Neutrophil-mediated B-1a cell trogocytosis by flow cytometry after C11 treatment in CLP mice; conditions: C11 10 mg/kg i.p. once immediately after CLP; cells isolated 4 h after CLP; CFSE-positive events within Ly6G-positive neutrophils; n = 5-6/group; p < 0.05 vs. C11 (-)
Text: Mice were anesthetized with 2% isoflurane in oxygen, and sepsis was induced via cecal ligation and puncture (CLP) ([26]). A 1-cm midline abdominal incision was made to expose the cecum, which was ligated 1-cm proximal to its end using a 4-0 silk suture. The cecum then was perforated with a single through-and-through puncture using a 22-gauge needle, positioned midway between the ligation and the tip of the cecum. A small amount of fecal material was gently extruded from the perforation sites to confirm the patency of the punctures, and the cecum was subsequently returned to the peritoneal cavity. Following abdominal closure, resuscitation was provided via subcutaneous (s.c.) injection of 500 µL normal saline. […]
B-1a cells (target cells) were isolated, and dead cells were removed using the EasySep Dead Cell Removal Kit (Cat. No. 17899, STEMCELL Technologies). […] Trogocytosis was evaluated using confocal imaging (LSM900; Zeiss, Oberkochen, Germany) to visualize the interaction between neutrophils and B-1a cells. NucBlue Live ReadyProbes Reagent (Thermo Fisher Scientific) was used for nuclear staining. For quantitative analysis, trogocytosis was assessed by flow cytometry, where CFSE (Carboxyfluorescein succinimidyl ester)-positive events within Ly6G-positive neutrophil populations were quantified as indicators of trogocytosis. […]

[6] = system: CLP-induced sepsis in C57BL/6 mice; assay: Lung histopathology (H&E) in CLP mice; conditions: C11 10 mg/kg i.p. once after CLP (Figure 5 legend: 10 μg/kg); 20 h; n = 5-7/group; vs. CLP vehicle
Text: as §1
Lung tissues were fixed in 10% formalin, embedded in paraffin, sectioned into 5-μm-thick slices, and stained with hematoxylin and eosin (H&E). […] Lung fields at ×400 magnification were scored and averaged for analyses.

For 126-ELKNRTVSWFS-136 [Compound C11], the “sepsis-induced pulmonary edema (lung wet-to-dry ratio)” value [1] was “effectively reduced”, the “lung MPO activity” value [2] was “attenuated” and the “plasma IL-6” value [3] was “significantly reduced”. The “plasma TNF-α” value [3] was “significantly reduced”, the “blood ALT” value [4] was “markedly reduced” and the “blood AST” value [4] was “markedly reduced”. For the same substance, the “blood LDH” value [4] was “markedly reduced”, the “neutrophil-mediated B-1a cell trogocytosis” value [5] was “significantly reduced” and the “sepsis-induced lung injury (H&E histology, lung injury score 0 to 1)” value [6] was “significantly mitigated”.
